Measurements taken from patent publication US5965699A (priority 1996, dated 1999).
Several values for one entry are separate records, joined by “and”; a condition that tells them apart may be missing. Equal values may be shown once. Read-outs that look alike come from different tables or passages of the source. Where a SMILES comes first, the peptide text is derived from it. [ ]: non-standard residue; d: D form. Abu = CC[C@H](N)C(=O)O

Key:
[1] = target: T1, botox A (Clostridium botulinum, UniProt P0DPI1); assay type: biochemical
T1 sequence (P0DPI1 2-448 limits assumed): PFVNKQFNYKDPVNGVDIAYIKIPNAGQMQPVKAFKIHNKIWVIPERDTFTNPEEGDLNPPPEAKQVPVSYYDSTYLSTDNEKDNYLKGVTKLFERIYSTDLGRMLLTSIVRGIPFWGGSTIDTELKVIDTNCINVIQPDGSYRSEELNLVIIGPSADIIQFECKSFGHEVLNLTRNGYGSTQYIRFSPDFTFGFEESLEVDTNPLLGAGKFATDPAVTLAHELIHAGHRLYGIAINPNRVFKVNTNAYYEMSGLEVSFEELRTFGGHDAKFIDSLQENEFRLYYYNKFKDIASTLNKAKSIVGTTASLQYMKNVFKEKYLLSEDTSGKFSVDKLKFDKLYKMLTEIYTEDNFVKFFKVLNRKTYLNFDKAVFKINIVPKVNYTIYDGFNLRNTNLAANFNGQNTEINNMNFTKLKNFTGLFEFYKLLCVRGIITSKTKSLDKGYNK

[2] = target: T1, botox A; test: biochemical; conditions: for inhibition at 1000 µM: read-out: inhibition of hydrolysis of peptide [1-17]
[3] = target: T1, botox A

Compound	hydrolysis by botox A, described in words [1]	inhibition at 1000 µM [2] [%]	effect on hydrolysis of substrate peptides by botox A [3]	kcat ([1]; in 1/s)	further results
Ac-SNKTRIDEANQRLTKML-NH2 [A13L, S N K T R I D E A N Q R L T K M L]	below the limits of detection	30			Ki [2]: 1000 to 2000 µM
lysozyme			no effect		
Ac-SNKTRIDEAAQRATKML-NH2 [N10A, S N K T R I D E A A Q R A T K M L]	only very slowly cleaved	30		1.8 ± 0.1	kcat as percent of that for peptide [1-17] [1]: about 4%
ribonuclease			no effect		
Ac-SNKTRIDEANQRATK-NH2 [[1-15], S N K T R I D E A N Q R A T K]	very slow rate of hydrolysis	17		~1.0	Relative Rate (initial hydrolysis rates relative to peptide [1-17]) [1]: 0.03; kcat as percent of that for peptide [1-17] [1]: 2-3%
ovalbumin			no effect		
Ac-SNKTRIDEANQRASKML-NH2 [T14S, S N K T R I D E A N Q R A S K M L]	significantly lower hydrolysis rate				Km [1]: 1200 µM; Relative Rate (initial hydrolysis rates relative to peptide [1-17]) [1]: 0.26; kcat [1]: ~9.0 and 9.0 sec^-1; Km ([1]; read-out: Km): ~1200 µM
CC[C@H](NC(=O)[C@H](CC(N)=O)NC(=O)[C@H](C)NC(=O)[C@H](CCC(=O)O)NC(=O)[C@H](CC(=O)O)NC(=O)[C@@H](NC(=O)[C@H](CCCNC(=N)N)NC(=O)[C@@H](NC(=O)[C@H](CCCCN)NC(=O)[C@H](CC(N)=O)NC(=O)[C@H](CO)NC(C)=O)[C@@H](C)O)[C@@H](C)CC)C(=O)N[C@@H](CCCNC(=N)N)C(=O)N[C@@H](C)C(=O)N[C@H](C(=O)N[C@@H](CCCCN)C(=O)N[C@@H](CCSC)C(=O)N[C@@H](CC(C)C)C(N)=O)[C@@H](C)O [Q11B, S N K T R I D E A N B R A T K M L] (Ac-SNKTRIDEAN[Abu]RATKML-NH2)	slowed but did not eliminate hydrolysis			7.7 ± 0.2	Km ([1]; read-out: Km): 830 ± 50 µM
gelatin			no effect		
